Target: T1, Human CGT (Homo sapiens, UniProt Q16880)
T1 construct: made in house; host or cells: CHO cells expressing UGT8; crude M-PER lysate
T1 sequence (Q16880 21-541): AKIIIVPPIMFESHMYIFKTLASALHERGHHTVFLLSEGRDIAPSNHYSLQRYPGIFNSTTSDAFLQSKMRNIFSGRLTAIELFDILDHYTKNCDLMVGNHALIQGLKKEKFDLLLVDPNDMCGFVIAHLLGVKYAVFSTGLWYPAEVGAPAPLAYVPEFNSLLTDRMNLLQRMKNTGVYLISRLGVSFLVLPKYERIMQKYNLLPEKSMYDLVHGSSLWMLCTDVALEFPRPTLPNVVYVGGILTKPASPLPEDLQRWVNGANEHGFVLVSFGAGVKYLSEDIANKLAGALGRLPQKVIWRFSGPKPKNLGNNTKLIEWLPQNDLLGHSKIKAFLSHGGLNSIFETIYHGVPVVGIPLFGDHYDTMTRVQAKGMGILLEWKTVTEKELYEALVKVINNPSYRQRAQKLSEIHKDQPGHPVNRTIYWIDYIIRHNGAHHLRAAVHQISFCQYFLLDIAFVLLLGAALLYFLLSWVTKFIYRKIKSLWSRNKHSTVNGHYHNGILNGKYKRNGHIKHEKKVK
Assay: CGT enzyme assay (cell-lysate assay)
Format: biochemical
Settings: lysate of CHO cells expressing human UGT8
Description: Human CGT was obtained from a cell lysate from CHO cells expressing UGT8 (made by BioMarin) prepared in M-PER with proteinase inhibitors (Sigma). Compounds, serially diluted in DMSO and Tween 80, were added to 4 µg/well of CHO/CGT cell lysate to make 20 µL final reaction volume containing 0.5% DMSO and 0.01% Tween 80 in the reaction buffer consisting of 10 µM NDB-(2R-OH)-C6 ceramide (made by BioMarin), 17.5 µM UDP-Galactose (Sigma), 35 µM of dioleoylphosphatidylcholine (DOPC), 5 mM MgCl2, 5 mM MnCl2, 1% BSA, 15 mM KCl, 1 mM EGTA, 8 mM CHAPS, 10 mM HEPES–NaOH pH 7.2. The reaction was incubated at 37 °C for 1 h and stopped by adding 80 µL of methanol:acetonitrile (1:3) with 5 µM N-dodecanoyl-NBD-galactosylceramide (Matreya) internal standard (IS) for 30 min. 200 µL H2O:ACN (1:1) was added for 5 min and then centrifuged at 4000 rpm for 38 min at RT before quantifying NDB-(2R-OH)-C6-galactosylceramide (BioMarin) by LC–MS on a Rapid Fire 360 mass spectrometer (Agilent) coupled with a API4000 + MS in electrospray ionization (ESI) negative mode (Applied Biosystems). These assay conditions were used to screen the Bio-active lipid library (Cayman Cat# 10506).

O=C1N(c2ccc(Br)cc2)C(=O)C(O)(c2ccccc2)N1c1ccc(Br)cc1 (stereo not shown) [S221]
IC50: 23 µM

Reference: publication PMC8280112, “Substrate reduction therapy for Krabbe disease and metachromatic leukodystrophy using a novel ceramide galactosyltransferase inhibitor” (Scientific Reports, 2021)
